Reference: the supplement of paper PMC10307832

Experiments:
Experiment in all cases: relative viability (nuclei count vs DMSO), 5 days (fraction); higher = more cells survive
Alpelisib = compound: Cc1nc(NC(=O)N2CCC[C@H]2C(N)=O)sc1-c1ccnc(C(C)(C)C(F)(F)F)c1 [Alpelisib]
Summary of the method: (§1)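 Vehicle-anchored 1536-well plates of lung cancer cell lines, held overnight at 37 °C, were pinned with five library-drug doses (not always all listed) spaced by √10. No medium change followed over the next 5 days, after which the cells were fixed, permeabilised and Hoechst-stained together and imaged at 4×. Nuclei were counted with MetaXpress, and viability is treated-well nuclei over vehicle-well nuclei, taken as a median across plates. Plates passed with control CV below 25% and at least one doubling.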

OSI-027 = compound: COc1cccc2cc(-c3nc([C@H]4CC[C@H](C(=O)O)CC4)n4ncnc(N)c34)[nH]c12 [OSI-027]
Summary of the method: as §1

Vemurafenib = compound: CCCS(=O)(=O)Nc1ccc(F)c(C(=O)c2c[nH]c3ncc(-c4ccc(Cl)cc4)cc23)c1F [Vemurafenib]
Summary of the method: as §1

Cell Line | relative viability (Alpelisib; 0.04 µM) | relative viability (Alpelisib; 0.1265 µM) | relative viability (Alpelisib; 0.4 µM) | relative viability (Alpelisib; 1.265 µM) | relative viability (Alpelisib; 2 µM, anchor plate) | relative viability (Alpelisib; 4 µM) | relative viability (OSI-027; 0.01 µM) | relative viability (OSI-027; 0.03162 µM) | relative viability (OSI-027; 0.1 µM) | relative viability (OSI-027; 0.3162 µM) | relative viability (OSI-027; 1 µM) | relative viability (Vemurafenib; 0.03162 µM) | relative viability (Vemurafenib; 0.1 µM) | relative viability (Vemurafenib; 0.3162 µM) | relative viability (Vemurafenib; 1 µM) | relative viability (OSI-027; 0.5 µM, anchor plate)
IA-LM | 0.979 | 0.854 | 1.02 | 0.753 | 0.799 | 0.717 | 0.888 | 0.779 | 0.671 | 0.293 | 0.151 | 0.837 | 0.888 | 0.86 | 0.851 | –
LC-2-ad | 0.966 | 0.905 | 1.09 | 0.685 | 0.868 | 0.672 | 1.07 | 1.01 | 0.946 | 1.02 | 0.779 | 0.923 | 0.892 | 0.738 | 0.956 | 0.875
LCLC-97TM1 | 0.873 | 0.845 | 1.01 | 0.796 | 0.257 | 0.521 | 0.87 | 0.869 | 0.888 | 0.594 | 0.375 | 0.989 | 1.05 | 1.02 | 0.912 | 0.536
LCLC-103H | 0.972 | 0.956 | 0.959 | 0.779 | 0.969 | 0.749 | 1.03 | 1.02 | 0.903 | 0.871 | 0.749 | 0.958 | 0.952 | 0.91 | 0.883 | 0.473
LK-2 | 0.885 | 0.868 | 0.685 | 0.563 | 1.1 | 0.599 | 1.02 | 0.914 | 0.703 | 0.515 | 0.191 | 0.944 | 0.937 | 1.05 | 0.66 | 0.221
LOU-NH91 | 0.961 | 0.806 | 0.859 | 0.753 | 0.732 | 0.604 | 0.903 | 0.967 | 0.786 | 0.776 | 0.591 | 0.954 | 0.724 | – | 1.07 | 0.72
LU99A | 0.899 | 0.96 | 1.04 | 0.773 | 0.511 | 0.696 | 0.953 | 0.894 | 0.831 | 0.451 | 0.27 | 0.93 | 0.946 | 0.74 | 0.895 | 0.307
LXF-289 | 0.988 | 1.11 | 1.05 | 1 | 1.06 | 0.961 | 1.02 | 0.971 | 1.04 | 0.981 | 0.881 | 0.967 | 0.95 | 1 | 1.06 | 0.817
NCI-H23 | 0.94 | 0.798 | 0.913 | 0.739 | 0.78 | 0.706 | 0.906 | 0.96 | 0.808 | 0.784 | 0.54 | 0.918 | 0.967 | 0.838 | 0.871 | 0.612
NCI-H322M | 0.879 | 0.961 | 0.918 | 0.698 | 0.786 | 0.682 | 0.922 | 0.887 | 0.843 | 0.72 | 0.527 | 0.883 | – | 1.11 | 0.906 | 0.578
NCI-H358 | 0.873 | 0.889 | 0.95 | 0.586 | 0.88 | 0.493 | 1 | 0.842 | 1.03 | 1.01 | 0.538 | 0.865 | – | 1.12 | 1.11 | 0.79
NCI-H441 | 1.1 | 0.95 | 1.01 | 0.605 | 0.766 | 0.662 | 1.19 | 1.05 | 0.984 | 0.963 | 0.474 | 0.899 | 0.963 | 0.787 | 0.931 | 0.636
NCI-H460 | 0.989 | 1.02 | 1.05 | 0.949 | 0.536 | 0.757 | 1.03 | 0.973 | 1.01 | 0.917 | 0.704 | 0.983 | 1 | 0.87 | 0.975 | 0.701
NCI-H520 | 0.891 | 0.935 | 1.11 | 0.725 | 0.945 | 0.503 | 1.15 | 0.972 | 0.73 | 0.628 | 0.34 | 0.944 | 0.944 | 1.08 | 0.924 | 0.261
NCI-H522 | 0.939 | 0.903 | 0.923 | 0.807 | – | 0.736 | 1 | 1.03 | 0.819 | 0.767 | 0.77 | 0.913 | 0.959 | 0.852 | 0.867 | 0.745
NCI-H596 | 0.94 | 1.01 | 0.968 | 0.52 | 0.478 | 0.567 | 0.971 | 0.927 | 0.889 | 0.959 | 0.723 | 0.842 | 0.914 | 0.83 | 0.828 | 0.704
NCI-H647 | 0.917 | 0.925 | 1.06 | 0.757 | 1.18 | 0.832 | 0.943 | 0.889 | 0.892 | 0.705 | 0.427 | 0.913 | 0.925 | 0.655 | 0.942 | 0.654
NCI-H650 | 0.877 | 0.825 | 0.96 | 0.752 | 1.14 | 0.738 | 0.862 | 0.999 | 0.732 | 0.701 | 0.403 | 0.882 | 0.965 | 0.413 | 0.628 | 0.532
NCI-H661 | 0.973 | 1.02 | 1.01 | 0.924 | 0.719 | 0.909 | 0.977 | 0.952 | 0.958 | 0.95 | 0.581 | 0.975 | 0.929 | 1.02 | 0.971 | 0.735
NCI-H727 | 0.904 | 0.894 | 0.893 | 0.789 | 0.586 | 0.565 | 0.849 | 0.884 | 0.893 | 0.769 | 0.712 | 1 | 0.802 | 1.2 | 0.908 | 0.624
NCI-H838 | 0.863 | 0.921 | 0.933 | 0.706 | 1.03 | 0.689 | 0.93 | 0.898 | 0.782 | 0.607 | 0.408 | 0.924 | 0.988 | – | 1.03 | 0.404
